Experimental data taken from article PMC8113538, “Acute toxicity analysis of an inhibitor of BCL2, Disarib, in rats” (Scientific Reports, 2021).

Key:
[1] = tested on: interaction of BCL2 with BAK; parameters: method as in PMID 28223017; details: cited from earlier work
Wistar rats [2] = assay: Single-dose acute toxicity / LD50 determination with general observation; type: in vivo, Wistar rats (Rattus norvegicus)
Description: All the studies were designed according to the guidelines of the Central Drug Standard Control Organization (Schedule-Y-CDSCO, Appendix III), India (https://cdsco.gov.in/opencms/opencms/en/Drugs/New-Drugs/). Single-dose toxicity analysis was performed in male Wistar rats. Animals were segregated in groups of five, and Disarib was administered using oral gavage (100, 1000, 2000 mg/kg b. wt.). Carboxymethyl cellulose, used for preparing Disarib, served as vehicle control to feed control animals. Mortality, general appearance, and behavior were initially observed for 24 h. Animals were further observed for 14 days and were further subjected to toxicity analysis.
The median lethal dose was determined in male Wistar rats. […] Disarib was orally administered after making solution using carboxymethyl cellulose (100, 1000, 2000 mg/kg), and lethality was evaluated over 14 days after treatment. Carboxymethyl cellulose treated animals served as vehicle control.
General cage-side examination of the treated and control animals were performed every day during the experiment. General behavior, appearance, skin, hairs, secretion (lachrymation), and death were evaluated daily, according to the guidelines of CDSCO, India[41],[42].
Body weight was recorded on every 4th day from the date of administration of Disarib up to […]. Food and water consumption were monitored every day from the date of administration of the compound. During the present study, on every alternate days ~ 250 g food pellet and ~ 500 ml water were given to each cage (control and treatment groups).

BCL-xL = tested on: BCL-xL; parameters: method as in PMID 28223017, PMID 27693384; details: cited from earlier work
Wistar rats [3] = assay: Haematological analysis after single oral dose; type: in vivo, Wistar rats (Rattus norvegicus); details: for platelet count vs control / Eosinophils / MCH (mean corpuscular haemoglobin) / MCHC (mean corpuscular haemoglobin concentration) / MCV (mean cell volume) / Monocytes / PCV (packed cell volume): Wistar rats
Description: After 14 days of Disarib treatment, two animals from each group were sacrificed using CO2 asphyxiation, and blood was collected in EDTA-coated vials by heart puncture. Red blood cells (RBC), white blood cells (WBC), platelet counts (PLT), packed cell volume (PCV), hemoglobin (HGB), mean cell volume (MCV), mean corpuscular hemoglobin (MCH), mean corpuscular hemoglobin concentration (MCHC), lymphocytes, neutrophils, eosinophils and monocytes were analyzed as described before[28],[31],[43]. Analysis of blood samples was performed at Rohana Veterinary Diagnostic Lab, Bangalore, India.

[4] = Pharmacokinetics in serum of Wistar rats after oral administration (HPLC); type: in vivo, Wistar rats (Rattus norvegicus); details: 50 mg/kg b. wt oral
Description: Wistar rats (Rattus norvegicus) were administered with 50 mg/kg Disarib orally, and blood was collected by heart-puncture method following sacrifice at different time points (15 min, 30 min, 1, 2, 4, 6, 8, 10, 12, 24, 48 and 72 h) following treatment. Blood was allowed to clot, and serum was separated by centrifugation (900×g, 10 min) and deproteinized by adding acetonitrile. Samples for standard calibration curve were prepared by spiking 100 μM Disarib in rat plasma. The supernatant was loaded onto a C18 column, and HPLC analysis was performed in acetonitrile:water gradient, as described before[23],[38] (Shimadzu, Kyoto, Japan). Disarib specific peak were acquired at 232 nm wavelength. At least two mice were sacrificed at each time point for the study. Pharmacokinetic parameters were analysed by using LabSolutions software (Shimadzu, Japan), and the values obtained were plotted with GraphPad Prism (ver5.1) software, where C is predicted concentration and t is time. Data was analysed using nonlinear regression analysis. Maximum drug plasma concentration (Cmax) and Time to reach Cmax was determind by area under the curve versus time curve. Clearance (Cl) and steady state volume of distribution (Vss) were calculated respectively by rate of drug elimination and amount of drug in the body at equilibrium condition vs steady state drug concentration in plasma.
The samples were analyzed by HPLC using the Shimadzu HPLC system. LC was carried out on the C18 analytical column. The mobile phase was the gradient of acetonitrile and water. Disarib specific peaks were detected at 232 nm. The injection volume was 20 μl, and the flow rate was 1.2 ml/min. The standard curves were constructed by plotting the peak area vs. concentration of Disarib[40].

[5] = 100 mg/kg oral, day 14, animal a
[6] = 100 mg/kg oral, day 14, animal b
[7] = 1000 mg/kg oral, day 14, animal a
[8] = 1000 mg/kg oral, day 14, animal b
[9] = 2000 mg/kg oral, day 14, animal a
[10] = 2000 mg/kg oral, day 14, animal b
[11] = Wistar rats, 100, 1000, 2000 mg/kg oral, day 14

## O=C1Nc2ccccc2/C1=C/c1c(-c2ccc(Br)cc2)nc2sc(Cc3ccc(Cl)cc3)nn12 [Disarib]
[1]
  disruption of BCL2-BAK interaction: disruption of the interaction of BCL2 with its proapoptotic partner BAK
Wistar rats [2]; Wistar rats, 100, 1000, 2000 mg/kg oral, assessed daily
  food and water consumption: no difference in eating and drinking habits
Wistar rats [2]; Wistar rats, 100, 1000, 2000 mg/kg oral, daily examination
  cage-side signs (behavior, appearance, lachrymation, locomotion, hair, skin): comparable to the vehicle control group
Wistar rats [2]; Wistar rats, 100, 1000, 2000 mg/kg oral, weighed every 4 days up to 32 days
  body weight: gradual increase in body weight of the animals, both in control and treated groups
Wistar rats [2]; Wistar rats, highest dose 2000 mg/kg b. wt. oral
  mortality and visible signs of toxicity: did not cause mortality or any visible sign of toxicity
Wistar rats [2]; Wistar rats, single oral dose, estimated
  Maximum Tolerated Dose (MTD): > 2000 mg/kg
Wistar rats [2]; male Wistar rats, single oral dose, 14 days observation
  LD50: > 2000 mg/kg b. wt
BCL-xL
  interaction with BCL-xL: not with other antiapoptotic proteins such as BCL-xL
Wistar rats [3]; 100 mg/kg oral, day 14
  platelet count vs control: such a difference was not observed
Wistar rats [3]; [5]
  Eosinophils: 1.0%
  MCH (mean corpuscular haemoglobin): 21.9 pg
  MCHC (mean corpuscular haemoglobin concentration): 36.5%
  MCV (mean cell volume): 60.2 fL
  Monocytes: 3.5%
  PCV (packed cell volume): 40.0%
Wistar rats [3]; [6]
  Eosinophils: 1.2%
  MCH (mean corpuscular haemoglobin): 22.0 pg
  MCHC (mean corpuscular haemoglobin concentration): 33.0%
  MCV (mean cell volume): 66.6 fL
  Monocytes: 4.2%
  PCV (packed cell volume): 38.4%
Wistar rats [3]; 1000 mg/kg b. wt. oral, day 14
  platelet count vs control: marginal variation
Wistar rats [3]; [7]
  Eosinophils: 1.0%
  MCH (mean corpuscular haemoglobin): 21.2 pg
  MCHC (mean corpuscular haemoglobin concentration): 32.3%
  MCV (mean cell volume): 65.7 fL
  Monocytes: 3.2%
  PCV (packed cell volume): 40.2%
Wistar rats [3]; [8]
  Eosinophils: 1.2%
  MCH (mean corpuscular haemoglobin): 21.9 pg
  MCHC (mean corpuscular haemoglobin concentration): 27.9%
  MCV (mean cell volume): 78.6 fL
  Monocytes: 8.1%
  PCV (packed cell volume): 36.9%
Wistar rats [3]; 2000 mg/kg oral, day 14
  platelet count vs control: such a difference was not observed
Wistar rats [3]; [9]
  Eosinophils: 1.0%
  MCH (mean corpuscular haemoglobin): 21.2 pg
  MCHC (mean corpuscular haemoglobin concentration): 33.4%
  MCV (mean cell volume): 63.7 fL
  Monocytes: 2.4%
  PCV (packed cell volume): 41.2%
Wistar rats [3]; [10]
  Eosinophils: 1.1%
  MCH (mean corpuscular haemoglobin): 20.7 pg
  MCV (mean cell volume): 63.3 fL
  Monocytes: 3.0%
  PCV (packed cell volume): 43.3%
Wistar rats [3]; [11]
  HGB content vs control: no significant difference
  WBC counts vs control: no significant difference
  lymphocytes count vs control: no significant difference
  neutrophils count vs control: no significant difference
  total number of RBC vs control: no significant difference
[4]
  maximum concentration (Cmax) in serum: ~ 18 μg/ml
[4]; estimated
  steady state volume of distribution (Vss): 4.16 L/kg
[4]; estimated from rate of drug elimination
  clearance rate: 0.44 mL/min/kg
[4]; serum
  t1/2: 36 h
  time to Cmax (Tmax): 24 h
